Measured values published in BindingDB's records for PubMed 1874734 (Laboratoires Glaxo, 1991).
pIC50: −log10 of the molar value.

Molecular target: cAMP-dependent protein kinase catalytic subunit alpha (Rattus norvegicus, UniProt P27791)
Test: PKA assay

SMILES	pIC50
CN1CCCC1CCn1cc(C2=C(c3c[nH]c4ccccc34)C(=O)NC2=O)c2ccccc21 (configuration not stated) [3-(1H-indol-3-yl)-4-{1-[2-(1-methylpyrrolidin-2-yl)ethyl]-1H-indol-3-yl}-2,5-dihydro-1H-pyrrole-2,5-dione]	5.70
CN(C)CCCn1cc(C2=C(c3c[nH]c4ccccc34)CNC2=O)c2ccccc21 [3-[1-(3-dymethylaminopropyl)-indol-3-yl]-4-(indol-3-yl)-3-pyrrolin-2-one]	< 5.00
